# Experiments:
# Caco-2 cells = experiment: Caco2 assay (Papp A-B); type: in vitro ADME; details: test compound 50 μM, 120 min, 37° C.
# Protocol: Caco-2 cells are grown at 37° C. in an atmosphere of 5% CO2 in DMEM growth medium supplemented with 10% (v/v) fetal bovine serum, 1% (v/v) nonessential amino acids, penicillin (100 U/mL), and streptomycin (100 μg/mL). Confluent cell monolayers are subcultured every 7 days or 4 days for Caco-2 by treatment with 0.05% trypsin containing […]. Caco-2 cells are seeded in 96-well Transwell plates. The seeding density for Caco-2 cells is 14,000 cells/well. DMEM growth medium is replaced every other day after seeding. Cell monolayers are used for transport assays between 22 and 25 days for Caco-2 cells.
# Cell culture medium is removed and replaced with HBSS. To measure the TEER, the HBSS is added into the donor compartment (apical side) and receiver compartment (basolateral side). The TEER is measured by using a REMS Autosampler to ensure the integrity of the cell monolayers. Caco-2 cell monolayers with TEER values 300 Ω·cm^2 are used for transport experiments. To determine the Papp in the absorptive direction (A-B), solution of test compound (50 μM) in HBSS is added to the donor compartment (apical side), while HBSS solution with 4% BSA is added to the receiver compartment (basolateral side). The apical volume was 0.075 mL, and the basolateral volume is 0.25 mL. The incubation period is 120 min. at 37° C. in an atmosphere of 5% CO2. At the end of the incubation period, samples from the donor and receiver sides are removed and an equal volume of MeCN is added for protein precipitation. The supernatants are collected after centrifugation (3000 rpm, Allegra X-14R Centrifuge from Beckman Coulter, Indianapolis, IN) for LCMS analysis. The permeability value is determined according to the equation:
# [formula] • where the flux rate (F, mass/time) is calculated from the slope of cumulative amounts of compound of interest on the receiver side, SA is the surface area of the cell membrane, VD is the donor volume, and MD is the initial amount of the solution in the donor chamber.
# The symbol “+” indicates a Caco-2 value of ≤0.5, “++” indicates a Caco-2 value of >0.5 but ≤1; and “+++” indicates a Caco-2 value of >1. “NA” indicates IC50 not available.
# KRAS G12V = KRAS G12V (Homo sapiens, UniProt P01116, G12V); experiment: GDP-GTP exchange assay (bodipy-GDP/GppNHp, SOS1), KRAS G12V; type: biochemical; details: Table H, column G12V; for compounds isolated as several atropisomers/diastereoisomers the value for the most potent isomer is quoted; read-out: KRAS G12V exchange assay IC50
# KRAS G12D = KRAS G12D (Homo sapiens, UniProt P01116, G12D); experiment: GDP-GTP exchange assay (bodipy-GDP/GppNHp, SOS1), KRAS G12D; type: biochemical; details: Table H, column G12D; for compounds isolated as several atropisomers/diastereoisomers the value for the most potent isomer is quoted; read-out: KRAS G12D exchange assay IC50
# KRAS G12D, sequence (P01116 1-188 isoform P01116-2 G12D): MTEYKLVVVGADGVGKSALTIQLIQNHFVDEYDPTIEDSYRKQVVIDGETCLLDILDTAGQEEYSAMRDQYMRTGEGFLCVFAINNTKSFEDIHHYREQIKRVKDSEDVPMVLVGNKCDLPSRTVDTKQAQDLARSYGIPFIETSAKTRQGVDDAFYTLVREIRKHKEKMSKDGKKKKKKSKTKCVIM
# KRAS G12V, sequence (P01116 1-188 isoform P01116-2 G12V): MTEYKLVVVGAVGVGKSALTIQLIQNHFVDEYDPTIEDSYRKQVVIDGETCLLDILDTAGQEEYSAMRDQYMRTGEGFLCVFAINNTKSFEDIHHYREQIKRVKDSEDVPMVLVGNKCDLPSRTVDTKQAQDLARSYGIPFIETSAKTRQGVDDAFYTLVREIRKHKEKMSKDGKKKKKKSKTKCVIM
SMILES,Caco-2 (Caco-2 cells),IC50 (KRAS G12V) [nM],IC50 (KRAS G12D) [nM]
"C[C@@H](O)c1nc2c(F)c(-c3cccc(Cl)c3Cl)c(CCC#N)cc2c2c1cc([C@H]1C[C@H](Oc3nccs3)CN1C(=O)C1CC1)n2[C@H]1[C@H]2CN[C@@H]1C2 [Example 54, 3-(1-((1R,4R,5S)-2-Azabicyclo[2.1.1]hexan-5-yl)-2-((2R,4S)-1-(cyclopropanecarbonyl)-4-(thiazol-2-yloxy)pyrrolidin-2-yl)-7-(2,3-dichlorophenyl)-6-fluoro-4-((R)-1-hydroxyethyl)-1H-pyrrolo[3,2-c]quinolin-8-yl)propanenitrile]",+ (a Caco-2 value of ≤0.5),≤ 100,≤ 100
"Cc1nc2c(F)c(-c3cccc(Cl)c3Cl)c(CCC#N)cc2c2c1cc([C@H]1C[C@H](Oc3ccccn3)CN1C(=O)C1CC1)n2[C@H]1[C@H]2CN[C@@H]1C2 [Example 5, 3-(1-((1R,4R,5S)-2-Azabicyclo[2.1.1]hexan-5-yl)-2-((2R,4S)-1-(cyclopropanecarbonyl)-4-(pyridin-2-yloxy)pyrrolidin-2-yl)-7-(2,3-dichlorophenyl)-6-fluoro-4-methyl-1H-pyrrolo[3,2-c]quinolin-8-yl)propanenitrile]",+++ (a Caco-2 value of >1),≤ 100,≤ 100
"COc1ccc(O[C@H]2C[C@H](c3cc4c([C@@H](C)O)nc5c(F)c(-c6cccc(Cl)c6Cl)c(CCC#N)cc5c4n3[C@H]3[C@H]4CN[C@@H]3C4)N(C(=O)C3CC3)C2)cn1 [Example 76, 3-(1-((1R,4R,5S)-2-Azabicyclo[2.1.1]hexan-5-yl)-2-((2R,4S)-1-(cyclopropanecarbonyl)-4-((6-methoxypyridin-3-yl)oxy)pyrrolidin-2-yl)-7-(2,3-dichlorophenyl)-6-fluoro-4-((R)-1-hydroxyethyl)-1H-pyrrolo[3,2-c]quinolin-8-yl)propanenitrile]",++ (a Caco-2 value of >0.5 but ≤1),≤ 100,≤ 100
"Cc1nc2c(F)c(-c3cccc(Cl)c3Cl)c(CCC#N)cc2c2c1cc([C@H]1C[C@H](n3cc(F)cn3)CN1C(=O)C1CC1)n2[C@H]1[C@H]2CN[C@@H]1C2 [Example 72, 3-(1-((1R,4R,5S)-2-Azabicyclo[2.1.1]hexan-5-yl)-2-((2R,4S)-1-(cyclopropanecarbonyl)-4-(4-fluoro-1H-pyrazol-1-yl)pyrrolidin-2-yl)-7-(2,3-dichlorophenyl)-6-fluoro-4-methyl-1H-pyrrolo[3,2-c]quinolin-8-yl)propanenitrile]",++ (a Caco-2 value of >0.5 but ≤1),≤ 100,≤ 100
"CC(O)c1nc2c(F)c(-c3cccc(Cl)c3Cl)c(CCC#N)cc2c2c1cc([C@H]1C[C@H](OCc3ccc(F)cc3C#N)CN1C(=O)C1(C)CC1)n2[C@H]1[C@H]2CN[C@@H]1C2 (stereo partly drawn) [Example 35, 2-((((3S,5R)-5-(1-((1R,4R,5S)-2-Azabicyclo[2.1.1]hexan-5-yl)-8-(2-cyanoethyl)-7-(2,3-dichlorophenyl)-6-fluoro-4-(1-hydroxyethyl)-1H-pyrrolo[3,2-c]quinolin-2-yl)-1-(1-methylcyclopropane-1-carbonyl)pyrrolidin-3-yl)oxy)methyl)-5-fluorobenzonitrile]",++ (a Caco-2 value of >0.5 but ≤1),≤ 100,≤ 100
"Cc1nc2c(F)c(-c3cccc(Cl)c3Cl)c(CCC#N)cc2c2c1cc([C@H]1C[C@H](Oc3ccnc(OC(F)F)c3)CN1C(=O)C1CC1)n2[C@H]1[C@H]2CN[C@@H]1C2 [Example 40, 3-(1-((1R,4R,5S)-2-Azabicyclo[2.1.1]hexan-5-yl)-2-((2R,4S)-1-(cyclopropanecarbonyl)-4-((2-(difluoromethoxy)pyridin-4-yl)oxy)pyrrolidin-2-yl)-7-(2,3-dichlorophenyl)-6-fluoro-4-methyl-1H-pyrrolo[3,2-c]quinolin-8-yl)propanenitrile]",+ (a Caco-2 value of ≤0.5),≤ 100,≤ 100
"COc1cc(O[C@H]2C[C@H](c3cc4c(C)nc5c(F)c(-c6cccc(Cl)c6Cl)c(CCC#N)cc5c4n3[C@H]3[C@H]4CN[C@@H]3C4)N(C(=O)C3CC3)C2)c(F)cn1 [Example 43, 3-(1-((1R,4R,5S)-2-Azabicyclo[2.1.1]hexan-5-yl)-2-((2R,4S)-1-(cyclopropanecarbonyl)-4-((5-fluoro-2-methoxypyridin-4-yl)oxy)pyrrolidin-2-yl)-7-(2,3-dichlorophenyl)-6-fluoro-4-methyl-1H-pyrrolo[3,2-c]quinolin-8-yl)propanenitrile]",+ (a Caco-2 value of ≤0.5),≤ 100,≤ 100
"C[C@@H](O)c1nc2c(F)c(-c3cccc(Cl)c3Cl)c(CCC#N)cc2c2c1cc([C@H]1C[C@H](Oc3cc(C4CC4)on3)CN1C(=O)C1CC1)n2[C@H]1[C@H]2CN[C@@H]1C2 [Example 77, 3-(1-((1R,4R,5S)-2-Azabicyclo[2.1.1]hexan-5-yl)-2-((2R,4S)-1-(cyclopropanecarbonyl)-4-((5-cyclopropylisoxazol-3-yl)oxy)pyrrolidin-2-yl)-7-(2,3-dichlorophenyl)-6-fluoro-4-((R)-1-hydroxyethyl)-1H-pyrrolo[3,2-c]quinolin-8-yl)propanenitrile]",+ (a Caco-2 value of ≤0.5),≤ 100,≤ 100
Cc1nc2c(F)c(-c3cccc(Cl)c3Cl)c(CCC#N)cc2c2c1cc([C@H]1C[C@H](OCc3ccccc3C(F)F)CN1C(=O)C1CC1)n2[C@H]1[C@H]2CN[C@@H]1C2 [Example 18],+ (a Caco-2 value of ≤0.5),≤ 100,≤ 100
"Cc1nc2c(F)c(-c3cccc(Cl)c3Cl)c(CCC#N)cc2c2c1cc([C@H]1C[C@H](n3cc(C45CC(C4)C5)nn3)CN1C(=O)C1CC1)n2[C@H]1[C@H]2CN[C@@H]1C2 [Example 68, 3-(2-((2R,4S)-4-(4-(Bicyclo[1.1.1]pentan-1-yl)-1H-1,2,3-triazol-1-yl)-1-(cyclopropanecarbonyl)pyrrolidin-2-yl)-1-((1R,4R,5S)-2-azabicyclo[2.1.1]hexan-5-yl)-7-(2,3-dichlorophenyl)-6-fluoro-4-methyl-1H-pyrrolo[3,2-c]quinolin-8-yl)propanenitrile]",+ (a Caco-2 value of ≤0.5),≤ 100,≤ 100
"COc1ncccc1O[C@H]1C[C@H](c2cc3c(C)nc4c(F)c(-c5cccc(Cl)c5Cl)c(CCC#N)cc4c3n2[C@H]2[C@H]3CN[C@@H]2C3)N(C(=O)C2CC2)[C@@H]1C [Example 49, 3-(1-((1R,4R,5S)-2-Azabicyclo[2.1.1]hexan-5-yl)-2-((2R,4S,5R)-1-(cyclopropanecarbonyl)-4-((2-methoxypyridin-3-yl)oxy)-5-methylpyrrolidin-2-yl)-7-(2,3-dichlorophenyl)-6-fluoro-4-methyl-1H-pyrrolo[3,2-c]quinolin-8-yl)propanenitrile]",+++ (a Caco-2 value of >1),≤ 100,≤ 100
"COc1cccc(O[C@H]2C[C@H](c3cc4c(C)nc5c(F)c(-c6cccc(Cl)c6Cl)c(CCC#N)cc5c4n3[C@H]3[C@H]4CN[C@@H]3C4)N(C(=O)C3CC3)C2)c1 [Example 44, 3-(1-((1R,4R,5S)-2-Azabicyclo[2.1.1]hexan-5-yl)-2-((2R,4S)-1-(cyclopropanecarbonyl)-4-(3-methoxyphenoxy)pyrrolidin-2-yl)-7-(2,3-dichlorophenyl)-6-fluoro-4-methyl-1H-pyrrolo[3,2-c]quinolin-8-yl)propanenitrile]",+ (a Caco-2 value of ≤0.5),≤ 100,≤ 100

# Reference: patent US20240390340A1 (INCYTE CORPORATION, priority 2023, published 2024)
